{
  "source": "patent US8198302B2",
  "about": "(OXiGENE, Inc., priority 2004, dated 2012)",
  "key": {"MHEC-5T tumors": {"test_system": "MHEC-5T tumors", "experiment": "Reduction in tumor blood flow / functional tumor vessels (fluorescent beads)", "format": "in vivo, mice", "conditions": "for reduction in tumor blood flow: 24 hr post-drug", "description": "(§1) Catechols were dissolved in 50% DMSO (2 mg/kg) prior to intravenous (iv) administration (i.v.) to tumor-bearing mice. MHEC-5T tumors were established by subcutaneous injection of 0.5×10^6 cultured MHEC5-T cells (German Collection of Microorganisms and Cell Culture, Braunschweig, Germany) into the right flank of Fox Chase CB-17 severe combined immunodeficient (SCID) mice. Tumor grafts grew palpable within one week and reached the limited size (15×15 mm) within 10 days. Tumor bearing mice were injected intraperitoneally with saline control or various dosages of CA1P or CA4P after the transplanted tumor reached a size of 300 mm^3 (a size without development of necrosis). Twenty-four hours later they were injected with 0.25 ml of fluorescent FluoSphere beads (0.1 μm beads conjugated with blue fluorescent tag (F-8789, Molecular Probes, Eugene, Oreg.) and diluted 1:6 in physiological saline) in the tail vein, and sacrificed after 3 minutes. Tumors were then excised for cryosections. Cryosections of 8 μm thickness were directly examined under a fluorescent microscope. Functional blood vessels were indicated by blue fluorescence from injected microbeads. For quantification, three sections from three tumors treated in each group were examined and in each section, more than 70% of the area was automatically recorded with a microscopic digital camera at ×10 magnification. A computer program named Stage Pro (Media Cybernetics, Md.) was used to control the picture recording. Image analysis was performed with Image Plus software (Media Cybernetics, Md.). The results were expressed as vessel area per mm^2 in percentage of the control in Table 2.\nas §1, with “The effect of CA1P on tumor blood flow was evaluated by quantifying the number of functional tumor vessels” for “Catechols were dissolved”, “treated murine tumors.” for “50% DMSO (2 mg/kg) prior to intravenous (iv) administration (i.v.) to tumor-bearing mice.”, “as in Example 4c.” for “by subcutaneous injection of 0.5×10^6 cultured MHEC5-T cells (German Collection of Microorganisms and Cell Culture, Braunschweig, Germany) into the right flank of Fox Chase CB-17 severe combined immunodeficient (SCID) mice. Tumor grafts grew palpable within one week and reached the limited size (15×15 mm) within 10 days.”, “MD)” for “Md.)”, “MD).” for “Md.).”, “control.” for “control in Table 2.”"}, "[1]": {"experiment": "Recovery of CA1 from plasma", "format": "in vitro ADME", "conditions": "in the presence of ascorbic acid in the extraction mixture", "description": "In blood, the ortho catechol CA1 is susceptible to oxidation. […] The recovery of CA1 was resolved by incorporation of ascorbic acid as an antioxidant in the extraction mixture. In the presence of ascorbic acid the recovery of CA1 from plasma was increased to approximately 90%."}, "tumor cells": {"test_system": "tumor cells", "experiment": "Tumor cell cytotoxicity, MTT assay", "format": "cell-based", "description": "Exponentially growing tumor cells were treated with the following compounds for 24 hours. Insoluble compounds were formulated in a small amount (0.3%) of DMSO for biological evaluation. Cell viability was determined by the calorimetric MTT assay using 3(4,5-dimethylthiazol-2-yl)-2,5-diphenyl-2H-tetrazolium bromide according to well-established procedures (see Berridge, et al. (1996) for a general protocol of this type of assay)."}, "tumor xenografts": {"test_system": "tumor xenografts", "experiment": "Evaluation of tumor xenografts treated with CA1P", "format": "in vivo", "description": "It is expected that in the highly oxygenated regions of the tumor, such as the tumor rim, that are resistant to tumor blood shutdown, CA1 is readily oxidized to its corresponding quinone, and is able to render a single agent response due to this second mechanism of action."}, "[2]": {"test_system": "murine adenocarcinoma CaNT", "experiment": "Tumor growth control in CaNT murine tumor model", "format": "in vivo, mice", "conditions": "single doses of 100, 200, and 400 mg/kg i.p., FIG. 5", "description": "The murine adenocarcinoma CaNT was grown subcutaneously on the back of 12- to 16-week old CBA/Gy fTO mice. Tumors were initiated by the injection of 0.05 ml of a crude tumor cell suspension prepared from a donor mouse. Animals were selected for treatment after 3 or 4 weeks, when tumors had reached a geometric mean diameter of 5 to 6.5 mm. CA1P and CA4P were dissolved in 0.9% saline at various concentrations and injected intraperitoneally into tumor bearing mice. Each treatment group consisted of between five and nine mice. A control treatment group was injected with 0.9% saline."}, "[3]": {"test_system": "murine adenocarcinoma CaNT", "experiment": "Functional vascular volume of tumor vessels (Hoechst 333342)", "format": "in vivo, mice", "conditions": "1 mg/kg i.p. (lowest dose), 24 hours", "description": "The effect of CA1P on tumor blood flow was evaluated by quantification of the functional volume of tumor vessels in treated murine tumors using a procedure previously described in detail and incorporated by reference herein (Smith K A, Br. J. Cancer, 57:247-253, 1988). The murine adenocarcinoma CaNT was grown subcutaneously on the back of 12- to 16-week old CBA/Gy fTO mice. Tumors were initiated by the injection of 0.05 ml of a crude tumor cell suspension prepared from a donor mouse. Animals were selected for treatment after 3 or 4 weeks, when tumors had reached a geometric mean diameter of 5 to 6.5 mm. CA1P and CA4P were dissolved in 0.9% saline at various concentrations and injected intraperitoneally into tumor bearing mice. Each treatment group consisted of between five and nine mice. A control treatment group was injected with 0.9% saline. At 24 hours post-injection, each mouse was injected intravenously with a 10 mg/kg dose of the fluorescent DNA-binding dye Hoechst 333342 and sacrificed 1 minute later. Tumors were immediately excised and bisected. Frozen tumor sections were cut at three levels and viewed under UV excitation where the fluorescent staining of perivascular cells identified perfused vessels. Vascular volumes were quantified based on a random point scoring system previously described and incorporated by reference herein (Chalkley H W, J. Natl Cancer Institute, 4: 47-53, 1943). All estimates were based on counting 100 fields from sections cut at each of the 3 different levels and the calculated vascular volumes were expressed as a percentage of the mean value for control tumors."}, "[4]": {"experiment": "Reaction of ortho-quinone with glutathione and ascorbate (stopped-flow, HPLC)", "format": "physicochemical", "conditions": "stopped-flow rapid mixing, FIG. 1A", "description": "The formation of each quinone was examined by reacting its corresponding catechol with excess FeCl3/H2SO4 and monitoring the reaction by HPLC. The identity of each quinone was confirmed by HPLC-MS (mass 330, λmax 312, 422 nm)."}, "[5]": {"experiment": "Stability of quinone product (TLC and NMR)", "format": "physicochemical", "conditions": "in D7 DMF, following the initiation of the reaction", "description": "To a solution of Combretastatin A-4 (0.032 g, 0.100 mmol; OXiGENE, Inc.) was added Iodoxybenzoic acid (0.028 g, 0.099 mmol) in D7 DMF (4 ml) with stirring by vortex for ½ hr. Completion of the reaction was indicated by the disappearance of the initial yellowish slurry and the appearance of a clear solution of a deep red color. ^1H-NMR was performed immediately as the quinone product was highly unstable and degraded within a ½ hr following the initiation of the reaction, as indicated by TLC and NMR."}, "[6]": {"conditions": "cited from earlier work"}, "tubulin": {"test_system": "tubulin", "conditions": "cited from earlier work"}},
  "data": [
    {"molecule": "COc1ccc(/C=C\\c2cc(OC)c(OC)c(OC)c2)c(O)c1O", "note": "[CA1, Combretastatin A-1]", "values": [
      {"measurement": "Blood Flow at 10 mg/kg (% vessel area of control)", "setting": "MHEC-5T tumors; 10 mg/kg, MHEC-5T tumor-bearing SCID mice, 24 hours after dosing", "result": "30 % vessel area of control"},
      {"measurement": "recovery", "setting": "[1]", "result": "~90", "unit": "%"},
      {"measurement": "IC50", "setting": "tumor cells; tumor cells treated for 24 hours", "result": 0.0046, "unit": "µM"}
    ]},
    {"molecule": "COc1cc(/C=C\\c2ccc(OC)c(OP(=O)(O)O)c2OP(=O)(O)O)cc(OC)c1OC", "note": "[CA1P, Combretastatin A-1 diphosphate]", "values": [
      {"measurement": "ED50 (vascular effect)", "setting": "MHEC-5T tumors; functional vessel number per mm^2, i.p., 24 hr, MHEC-5T tumors", "result": 3, "unit": "mg/kg"},
      {"measurement": "blood flow in the peripheral region of tumors", "setting": "MHEC-5T tumors; periphery = rim of width 10% of the tumor diameter", "result": "reduced the blood flow in the peripheral region as well"},
      {"measurement": "reduction in tumor blood flow", "setting": "MHEC-5T tumors; single i.p. injection 3 mg/kg, MHEC-5T tumors", "result": 50, "unit": "%"},
      {"measurement": "reduction in tumor blood flow", "setting": "MHEC-5T tumors; single i.p. injection 6 mg/kg, MHEC-5T tumors", "result": 74, "unit": "%"},
      {"measurement": "reduction in tumor blood flow", "setting": "MHEC-5T tumors; single i.p. injection 50 mg/kg, MHEC-5T tumors", "result": 90, "unit": "%"},
      {"measurement": "blood flow in the central region of tumors", "setting": "MHEC-5T tumors; spatial distribution of blood vessel shutdown", "result": "blood flow reduction"},
      {"measurement": "tumor cell destruction by location", "setting": "tumor xenografts", "result": "not only destroyed centrally located tumor cells but also cells located at the periphery of the tumor"},
      {"measurement": "effect on tumor growth", "setting": "[2]", "result": "significant tumor growth delay"},
      {"measurement": "reduction of the percentage of functional vasculature in the tumor", "setting": "[3]", "result": "over 50%"},
      {"measurement": "antiproliferative activity against tumor cells in vitro", "setting": "tumor cells; in comparison to CA4P", "result": "inferior"}
    ]},
    {"molecule": "COC1=CC=C(/C=C\\c2cc(OC)c(OC)c(OC)c2)C(=O)C1=O", "note": "[CA-1 Ortho-Quinone]", "values": [
      {"measurement": "reaction with glutathione and ascorbate", "setting": "[4]", "result": "react rapidly"},
      {"measurement": "time to degradation of quinone product", "setting": "[5]", "result": "½"}
    ]},
    {"molecule": "COc1ccc(/C=C\\c2cc(OC)c(OC)c(OC)c2)cc1O", "note": "[CA-4, Combretastatin A-4]", "values": [
      {"measurement": "solubility in human plasma", "setting": "[6]", "result": "insolubility"},
      {"measurement": "tubulin binding activity", "setting": "tubulin", "result": "potent"}
    ]}
  ]
}
